The target in experiment [1] is Beta-galactosidase (Canavalia ensiformis). Briefly: Inhibition constant against beta-galactosidase enzyme of jack bean was reported.
Experiment [2] shares this target. The description is as above. The source holds these as a separate data set.

By Ki is commonly meant the equilibrium dissociation constant of an inhibitor or competing ligand from its target. Lower therefore signals a stronger hold on the target. A word on the IC50: it is the concentration needed to halve the response being measured. `CC(=O)N[C@H]1C(O)O[C@H](C(O)CO)[C@@H]1C[C@H]1O[C@H](CO)[C@@H](O)[C@H](O)[C@@H]1O` (some centres not stated) [N-[2,5-Dihydroxy-6-hydroxymethyl-4-(3,4,5-trihydroxy-6-hydroxymethyl-tetrahydro-pyran-2-ylmethyl)-tetrahydro-pyran-3-yl]-acetamide and N-[5-(1,2-Dihydroxy-ethyl)-2-hydroxy-4-(3,4,5-trihydroxy-6-hydroxymethyl-tetrahydro-pyran-2-ylmethyl)-tetrahydro-furan-3-yl]-acetamide] came in with a Ki in experiment [1] of 7.5 µM. The compound further had an IC50 in experiment [2] of 9.4 µM.

These data come from BindingDB's records for doi:10.1016/s0960-894x(99)00064-5 (Institut De Chimie Organique De L'Universit&#233, 1999).
